According to paper PMC11435058, “Synthesis of New Thiazole-Privileged Chalcones as Tubulin Polymerization Inhibitors with Potential Anticancer Activities” (Pharmaceuticals, 2024):

How the values were obtained:
MDA-MB-468 = assay: NCI-60 anticancer screen (SRB; single dose and five doses); type: cell-based, human
Method in brief: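 NCI panel of about 60 human tumor cell lines treated with compound at a single concentration (10μM) for 48 h. Growth measured by SRB protein staining and expressed as percent growth of treated versus untreated control cells.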

SNB-19 = assay: cells; conditions: Homo sapiens
OVCAR-3 = assay: cells; conditions: Homo sapiens
EKVX = assay: NCI-60 anticancer screen (SRB; single dose and five doses); conditions: Homo sapiens
NCI-H23 = assay: as above; conditions: Homo sapiens
NCI-H460 = assay: as above; conditions: Homo sapiens
NCI-H522 = assay: as above; conditions: Homo sapiens
HCC-2998 = assay: as above
HCT-116 = assay: as above; conditions: Homo sapiens
SW-620 = assay: as above; conditions: Homo sapiens
SF-539 = assay: as above; conditions: Homo sapiens
SNB-75 = assay: as above; conditions: Homo sapiens, SNB-75, 48 h, read-out: Growth Percentage
U251 = assay: as above; conditions: Homo sapiens
M14 = assay: as above; conditions: Homo sapiens
MDA-MB-435 = assay: as above; conditions: Homo sapiens
SK-MEL-28 = assay: as above; conditions: Homo sapiens
OVCAR-4 = assay: as above; conditions: Homo sapiens
OVCAR-8 = assay: as above; conditions: Homo sapiens
SK-OV-3 = assay: as above; conditions: Homo sapiens
786-0 = assay: as above; conditions: Homo sapiens
A498 = assay: as above; conditions: Homo sapiens
ACHN = assay: as above; conditions: Homo sapiens
SN12C = assay: as above; conditions: Homo sapiens
TK-10 = assay: as above; conditions: Homo sapiens
UO-31 = assay: as above; conditions: Homo sapiens
[1] = 48 h, read-out: Growth Percentage

Cc1[nH]c(=S)sc1C(=O)/C=C/c1ccc(F)cc1 [2c, (E)-3-(4-Fluorophenyl)-1-(4-Methyl-2-Thioxo-2,3-Dihydrothiazol-5-yl)Prop-2-En-1-One]
activity at 10 µM (MDA-MB-468; Homo sapiens, 48 h, MDA-MB-468, dose of 10 μM, read-out: Growth Percentage): -4.51% | GI50 (MDA-MB-468; Homo sapiens, MDA-MB-468, Breast Cancer, five dose): 1.93 µM | CC50 (MDA-MB-468; Homo sapiens, MDA-MB-468, Breast Cancer, five dose, read-out: LC50 (the source's name)): 25.3 µM | TGI (MDA-MB-468; MDA-MB-468, Breast Cancer, five dose): 6.46 µM | GI50 (SNB-19; SNB-19): 4.87 µM | activity at 10 µM (SNB-19; SNB-19, 48 h, read-out: Growth Percentage): 33.7% | CC50 (SNB-19; SNB-19, read-out: LC50): 43.1 µM | IC (TGI) (SNB-19; SNB-19, read-out: TGI): 17.8 µM | GI50 (OVCAR-3; OVCAR-3): 2.42 µM | activity at 10 µM (OVCAR-3; OVCAR-3, 48 h, read-out: Growth Percentage): -10.9% | CC50 (OVCAR-3; OVCAR-3, read-out: LC50): 24.5 µM | IC (TGI) (OVCAR-3; OVCAR-3, read-out: TGI): 6.81 µM | GI50 (EKVX): 12.8 µM | activity at 10 µM (EKVX; [1]): 51% | CC50 (EKVX; read-out: LC50): 64.6 µM | IC (TGI) (EKVX; read-out: TGI): 28.7 µM | GI50 (NCI-H23; NCI-H23): 10.6 µM | activity at 10 µM (NCI-H23; NCI-H23, 48 h, read-out: Growth Percentage): 62.7% | CC50 (NCI-H23; NCI-H23, read-out: LC50): 49.9 µM | IC (TGI) (NCI-H23; NCI-H23, read-out: TGI): 23 µM | GI50 (NCI-H460; NCI-H460): 15.2 µM | activity at 10 µM (NCI-H460; NCI-H460, 48 h, read-out: Growth Percentage): 39.3% | CC50 (NCI-H460; NCI-H460, read-out: LC50): 83.3 µM | IC (TGI) (NCI-H460; NCI-H460, read-out: TGI): 35.6 µM | GI50 (NCI-H522; NCI-H522): 8.63 µM | activity at 10 µM (NCI-H522; NCI-H522, 48 h, read-out: Growth Percentage): 44.2% | CC50 (NCI-H522; NCI-H522, read-out: LC50): 46.8 µM | IC (TGI) (NCI-H522; NCI-H522, read-out: TGI): 21.2 µM | GI50 (HCC-2998; Homo sapiens, HCC 2998): 3.46 µM | activity at 10 µM (HCC-2998; Homo sapiens, HCC 2998, 48 h, read-out: Growth Percentage): 27.1% | CC50 (HCC-2998; Homo sapiens, HCC 2998, read-out: LC50): 36.5 µM | TGI (HCC-2998; five-dose, Colon Cancer HCC-2998): 13.2 µM | GI50 (HCT-116; HCT-116): 3.99 µM | activity at 10 µM (HCT-116; HCT-116, 48 h, read-out: Growth Percentage): 23.7% | CC50 (HCT-116; HCT-116, read-out: LC50): 42.5 µM | IC (TGI) (HCT-116; HCT-116, read-out: TGI): 15.2 µM | GI50 (SW-620; SW-620): 3.37 µM | activity at 10 µM (SW-620; SW-620, 48 h, read-out: Growth Percentage): 13.8% | CC50 (SW-620; SW-620, read-out: LC50): 49.3 µM | IC (TGI) (SW-620; SW-620, read-out: TGI): 15 µM | GI50 (SF-539; SF-539): 2.94 µM | activity at 10 µM (SF-539; SF-539, 48 h, read-out: Growth Percentage): -4.61% | IC (TGI) (SF-539; SF-539, read-out: TGI): 10.8 µM | activity at 10 µM (SNB-75): 36.5% | GI50 (U251; U-251): 3.63 µM | activity at 10 µM (U251; U-251, 48 h, read-out: Growth Percentage): 14.1% | CC50 (U251; U-251, read-out: LC50): 41.9 µM | IC (TGI) (U251; U-251, read-out: TGI): 15.1 µM | GI50 (M14; M14): 6.97 µM | activity at 10 µM (M14; M14, 48 h, read-out: Growth Percentage): 49.6% | IC (TGI) (M14; M14, read-out: TGI): 22.2 µM | GI50 (MDA-MB-435; MDA-MB-435): 4.24 µM | activity at 10 µM (MDA-MB-435; MDA-MB-435, 48 h, read-out: Growth Percentage): 4.67% | CC50 (MDA-MB-435; MDA-MB-435, read-out: LC50): 48.7 µM | IC (TGI) (MDA-MB-435; MDA-MB-435, read-out: TGI): 17.5 µM | GI50 (SK-MEL-28; SK-MEL-28): 11.8 µM | activity at 10 µM (SK-MEL-28; SK-MEL-28, 48 h, read-out: Growth Percentage): 50.6% | CC50 (SK-MEL-28; SK-MEL-28, read-out: LC50): 51.4 µM | IC (TGI) (SK-MEL-28; SK-MEL-28, read-out: TGI): 24.7 µM | GI50 (OVCAR-4; OVCAR-4): 6.03 µM | activity at 10 µM (OVCAR-4; OVCAR-4, 48 h, read-out: Growth Percentage): 48.4% | CC50 (OVCAR-4; OVCAR-4, read-out: LC50): 44.7 µM | IC (TGI) (OVCAR-4; OVCAR-4, read-out: TGI): 19.6 µM | GI50 (OVCAR-8; OVCAR-8): 3.99 µM | activity at 10 µM (OVCAR-8; OVCAR-8, 48 h, read-out: Growth Percentage): -13.6% | CC50 (OVCAR-8; OVCAR-8, read-out: LC50): 50.9 µM | IC (TGI) (OVCAR-8; OVCAR-8, read-out: TGI): 16.2 µM | GI50 (SK-OV-3; SK-OV-3): 11 µM | CC50 (SK-OV-3; SK-OV-3, read-out: LC50): 61.8 µM | IC (TGI) (SK-OV-3; SK-OV-3, read-out: TGI): 26.1 µM | GI50 (786-0; 786-0): 4.59 µM | activity at 10 µM (786-0; 786-0, 48 h, read-out: Growth Percentage): 37.3% | CC50 (786-0; 786-0, read-out: LC50): 47.1 µM | IC (TGI) (786-0; 786-0, read-out: TGI): 17.6 µM | GI50 (A498; A498): 13.6 µM | activity at 10 µM (A498; A498, 48 h, read-out: Growth Percentage, A498, dose of 10 μM): 115% | CC50 (A498; A498, read-out: LC50): 52.6 µM | IC (TGI) (A498; A498, read-out: TGI): 26.8 µM | GI50 (ACHN): 7.02 µM | activity at 10 µM (ACHN; [1]): 47.2% | CC50 (ACHN; read-out: LC50): 44.3 µM | IC (TGI) (ACHN; read-out: TGI): 19.6 µM | GI50 (SN12C): 3.95 µM | activity at 10 µM (SN12C; [1]): 24.1% | CC50 (SN12C; read-out: LC50): 46.7 µM | IC (TGI) (SN12C; read-out: TGI): 17 µM | GI50 (TK-10; TK-10): 12.5 µM | activity at 10 µM (TK-10; TK-10, 48 h, read-out: Growth Percentage): 40.4% | CC50 (TK-10; TK-10, read-out: LC50): 50.7 µM | IC (TGI) (TK-10; TK-10, read-out: TGI): 25.2 µM | GI50 (UO-31; UO-31): 2.88 µM | activity at 10 µM (UO-31; UO-31, 48 h, read-out: Growth Percentage): 28.1% | IC (TGI) (UO-31; UO-31, read-out: TGI): 15.7 µM
